This is an account of results in patent US20200131249A1, “NOVEL PROTEINS AND USE THEREOF” (EVOLVERITAS KFT., priority 2017, published 2020).

Where no end group is shown, it is not given here.

This test concerns intrinsic pathway. Briefly: Activated partial thromboplastin time (APTT) in human plasma. As for the experimental part: Blood coagulation measurements using blood plasma taken from healthy human individuals were also performed. From the blood obtained through venipuncture and treated with sodium citrate (3.8% wt/vol) the plasma was isolated by centrifugation (2,000 g, 15 minutes, Jouan CR412 centrifuge).
The effect of the protein variants of the present invention on the blood coagulation process was tested in three standard assays, the thrombin time, testing any direct effects on thrombin; prothrombin time, testing any effects on the extrinsic pathway; and the activated partial thromboplastin time, testing any effects on the intrinsic pathway. Blood was collected from a healthy individual by vein puncture after informed consent. The blood was treated with sodium-citrate (3.8% w/v) and centrifuged. All three assays were performed on the automated instrument Sysmex CA-1500 (Sysmex) with Innovin reagent (Dale Behring, Marburg, Germany).
The inhibitors were applied in a fivefold serial dilution with the highest final concentration being 36 μM. This value is 3-4 orders of magnitudes higher than the KI values of the three protein variants of the present invention on human MASP-2. Even at the highest concentration the protein variants of the present invention have only little effect in the APTT test and no effect in the PT and TT tests.

As to “SEQ ID NO: 14: TFPI-D2 variant protein with inhibitor loop PCRAVKR (SEQ ID NO: 4) (KPDFCFLEEDPGPCRAVKRRYFYNNQTKQCERFKYGGCLGNMNNFETLEECKNICEDG; ends and bridges not checked; cysteine pairing not given here)”, the APTT reads like this: (inhibitor 0.1 μM) 36.1 s; (inhibitor 0.3 μM) 36.8 s; (inhibitor 1.4 μM) 37.9 s; (inhibitor 7.2 μM) 40.2 s; (inhibitor 36.0 μM) 46.4 s.
